We go through 23 compounds from US7557215B2, “Anthraquinone compounds as anti cancer compounds” (Somanta Limited, priority 2003, dated 2009).

One series relates to A2780. Description: Inhibition of cell growth, A2780 wild type ovarian carcinoma cell line.
Another series relates to A2780/cp70. Description: Inhibition of cell growth, cisplatin resistant A2780/cp70 cell line. The format is cell-based, human. The following applies: for RF A2780/cp70 (IC50 in resistant cell line/IC50 in parent cell line): A2780/cp70 vs A2780.
In another series the test system is 2780AD. Briefly: Inhibition of cell growth, adriamycin (doxorubicin) resistant 2780AD cell line. The format is cell-based, human. The note with it: for IC50: read-out: Inhibition of cell growth 2780AD nM (IC50); for RF 2780AD (IC50 in resistant cell line/IC50 in parent cell line): 2780AD vs A2780.
Where [1] appears, read: read-out: Growth Inhibition (IC50) A2780, A2780, Table 4.
The mark [2] stands for this setting: A2780/cp70 cisplatin resistant, read-out: Inhibition of cell growth A2780/cp70 nM (IC50).
The mark [3] stands for this setting: Homo sapiens, A2780/CP70, read-out: Inhibition of cell growth A2780/cp70 nM (IC50).
The mark [4] stands for this setting: Homo sapiens, A2780, read-out: Inhibition of cell growth A2780 nM (IC50).
Where [5] appears, read: read-out: Inhibition of cell growth (IC50, nM) A2780, A2780, Table 1.

Where two headings read alike, the source gives them in different places.

For orientation: melting point means the temperature of the solid-liquid transition. Consider `O=C1c2c(O)ccc(O)c2C(=O)c2c(NCCN3CCCCC3)ccc(NCCN3CCCCC3)c21` [HAQ145, 1,4-Bis-{[2-(piperidin-1-yl)ethyl]amino}-5,8-dihydroxy-anthracene-9,10-dione], for which the melting point lay within 219 to 221 °C.

As for `C[N+](C)([O-])CCNc1ccc(NCC[N+]2([O-])CCCC2CO)c2c1C(=O)c1c(O)ccc(O)c1C2=O` (stereo not drawn) [HAQ132N, 1-{[2-(2-Hydroxymethylpyrrolidin-1-yl-N-oxide)ethyl]amino}-4-{[(2-dimethylamino-N-oxide)ethyl]amino}-5,8-dihydroxy-anthracene-9,10-dione], the IC50 is more than 100000 nM with A2780 (setting [1]) and more than 100000 nM with A2780 (read-out: IC50 of di-N-oxides (order of cytotoxicity), text b286). In addition, in the series on A2780 (text b286), the “cytotoxicity ratio (CR=IC50 of alkylaminoanthraquinone-di-N-oxide/IC50 alkylaminoanthraquinone)” value is 1,450.

`O=C1c2c(O)ccc(O)c2C(=O)c2c(NCCN3CCCC(CO)C3)ccc(NCCN3CCCC(CO)C3)c21` (stereo not drawn) [HAQ70, 1,4-Bis-{[2-(3-hydroxymethylpiperidine-1-yl)ethyl]amino}-5,8-dihydroxyanthracene-9,10-dione]: the melting point was 180 to 183 °C.

Consider `CN(C)CCNc1ccc(NCCN2CCCCC2CCl)c2c1C(=O)c1c(O)ccc(O)c1C2=O` (stereo not drawn) [CAQ183M, 1-{[2-(2-Chloromethylpiperidin-1-yl)ethyl]-amino}-4-{[(2-dimethylamino)ethyl]amino}-5,8-dihydroxyanthracene-9,10-dione], for which the IC50 stood at 0.069 µM with A2780/cp70 (setting [2]) and 91 nM with 2780AD (2780AD adriamycin resistant). In addition, the “RF A2780/cp70 (IC50 in resistant cell line/IC50 in parent cell line)” value (shortened to “RF A2780/cp70”) with A2780/cp70 is given as 1.7. Besides, the “RF 2780AD (IC50 in resistant cell line/IC50 in parent cell line)” value (“RF 2780AD” for short) with 2780AD amounted to 2.3.

Consider `CN(C)CCNc1ccc(NCCN2CCC(Cl)CC2)c2c1C(=O)c1c(O)ccc(O)c1C2=O` [CAQ172, 1-{[2-(4-Chloropiperidin-1-yl)ethyl]amino}-4-{[(2-dimethylamino)ethyl]amino}-5,8-dihydroxyanthracene-9,10-dione], for which the IC50 worked out at 0.535 µM with A2780/cp70 (setting [2]) and 426 nM with 2780AD (2780AD adriamycin resistant). For the same compound, the “RF A2780/cp70” value in the series with A2780/cp70 came out at 0.9. Besides, the “RF 2780AD” value in the series on 2780AD is 0.7.

On to `O=C1c2c(O)ccc(O)c2C(=O)c2c(NCCN3CCCC(CCl)C3)ccc(NCCN3CCCC(CCl)C3)c21` (stereo not drawn) [CAQ74, 1,4-Bis-{[2-(3-chloromethylpiperidin-1-yl)ethyl]amino}-5,8-dihydroxyanthracene-9,10-dione], for which the IC50 with A2780/cp70 (setting [3]) is more than 1 µM; in the series on 2780AD (Homo sapiens, 2780AD), more than 1000 nM; in the series on A2780 (setting [4]), more than 1000 nM.

`O=C1c2ccccc2C(=O)c2c(NCCN3CCCC(CO)C3)ccc(NCCN3CCCC(CO)C3)c21` (stereo not drawn) [HAQ38, 1,4-Bis-{[2-(3-hydroxymethylpiperidine-1-yl)ethyl]amino}-anthracene-9,10-dione]: the melting point was 112 to 114 °C.

Consider `CN(C)CCNc1ccc(NCCN2CCCC2CCl)c2c1C(=O)c1c(O)ccc(O)c1C2=O` (stereo not drawn) [CAQ176M, 1-{[2-(2-Chloromethylpyrrolidin-1-yl)ethyl]-amino}-4-{[(2-Dimethylamino)ethyl]amino}-5,8-dihydroxyanthracene-9,10-dione], for which the results for the IC50 with A2780/cp70 (setting [2]) and in the series on 2780AD (2780AD adriamycin resistant) were 0.079 µM and 292 nM, respectively. Moreover, the “RF A2780/cp70” value in the series with A2780/cp70 is recorded as 2.7. In addition, the “RF 2780AD” value in the series with 2780AD was determined as 10.1.

Regarding `CN(C)CCNc1ccc(NCCN2CCC(O)CC2)c2c1C(=O)c1c(O)ccc(O)c1C2=O` [HAQ111, 1-{[(2-Dimethylamino)ethyl]amino}-4-{[2-(4-hydroxypiperidin-1-yl)ethyl]amino}-5,8-dihydroxy-anthracene-9,10-dione], in the series on A2780 (setting [5]), the IC50 is 6.1 nM.

Regarding `O=C1c2c(O)ccc(O)c2C(=O)c2c(NCCN3CCCC3CCl)ccc(NCCN3CCCC3CCl)c21` (stereo not drawn) [CAQ177M, 1,4-Bis-{[2-(2-chloromethylpyrrolidin-1-yl)ethyl]amino}-5,8-dihydroxyanthracene-9,10-dione], the “RF A2780/cp70” value in the series on A2780/cp70 was 1. For the same compound, the IC50 in the series on A2780/cp70 (setting [3]) stood at 0.442 µM; in the series on 2780AD (Homo sapiens, 2780AD) it was 782 nM; with A2780 (setting [4]) it was 428 nM. Further, in the series with 2780AD, the “RF 2780AD” value turned out to be 1.8.

Turning to `O=C1c2c(O)ccc(O)c2C(=O)c2c(NCCN3CCCCC3CO)ccc(NCCN3CCCCC3CO)c21` (stereo not drawn) [HAQ105, 1,4-Bis-{[2-(2-hydroxymethylpiperidine-1-yl)ethyl]amino}-5,8-dihydroxy-anthracene-9,10-dione], the melting point was in the range of 208 to 210 °C.

Regarding `O=C1c2c(O)ccc(O)c2C(=O)c2c(NCCN3CCCC3CO)ccc(NCCN3CCCC3CO)c21` (stereo not drawn) [HAQ125, 1,4-Bis-{[2-(2-hydroxymethylpyrrolidin-1-yl)ethyl]amino}-5,8-dihydroxy-anthracene-9,10-dione], the melting point is 202 to 204 °C.

For `CN(C)CCNc1ccc(NCCN2CCC(Cl)C2)c2c1C(=O)c1c(O)ccc(O)c1C2=O` (stereo not drawn) [CAQ188M, 1-{[2-(3-Chloropyrrolidin-1-yl)ethyl]amino}-4-{[(2-dimethylamino)ethyl]amino}-5,8-dihydroxyanthracene-9,10-dione], the IC50 came out at 0.096 µM with A2780/cp70 (setting [2]) and 342 nM in the series with 2780AD (2780AD adriamycin resistant). Also, the “RF A2780/cp70” value in the series on A2780/cp70 is on record as 1.4. The “RF 2780AD” value with 2780AD is 5.0.

The compound `O=C1c2c(O)ccc(O)c2C(=O)c2c(NCCN3CCC(O)CC3)ccc(NCCN3CCC(O)CC3)c21` [HAQ116, 1,4-Bis-{[2-(4-hydroxypiperidin-1-yl)ethyl]amino}-5,8-dihydroxy-anthracene-9,10-dione] had a melting point of 241 to 244 °C.

For `O=C1c2ccccc2C(=O)c2c(NCCN3CCCC3CO)cccc21` (stereo not drawn) [HAQ163, 1-{[2-(2-Hydroxymethylpyrrolidin-1-yl)ethyl]amino}-anthracene-9,10-dione], the melting point lay in the range of 113 to 115 °C. Moreover, in the series on A2780/cp70 (Homo sapiens, A2780/cp70 cisplatin resistant, read-out: Inhibition of cell growth A2780/cp70 nM (IC50)), the IC50 was more than 1 µM. The IC50 in the series with 2780AD (Homo sapiens, 2780AD adriamycin resistant) was more than 1000 nM. For the same compound, the IC50 in the series with A2780 (read-out: Inhibition of cell growth A2780 nM (IC50)) was more than 1000 nM.

Take `CN(C)CCNc1ccc(NCCN2CCCCC2)c2c1C(=O)c1c(O)ccc(O)c1C2=O` [HAQ148, 1-{[(2-Dimethylamino)ethyl]amino}-4-{[2-(piperidin-1-yl)ethyl]amino}-5,8-dihydroxyanthracene-9,10-dione, reference compound]: the IC50 in the series with A2780/cp70 (setting [2]) is more than 1 µM; in the series with 2780AD (2780AD adriamycin resistant) it was more than 1000 nM; in the series with A2780 (setting [5]), more than 1000 nM; with A2780 (read-out: Inhibition of cell growth A2780 nM (IC50), A2780 wild type, Table 2), more than 1000 nM.

In the case of `CN(C)CCNc1ccc(NCCN2CCCC2CO)c2c1C(=O)c1c(O)ccc(O)c1C2=O` (stereo not drawn) [HAQ110, 1-{[(2-Dimethylamino)ethyl]amino}-4-{[2-(2-hydroxymethylpyrrolidin-1-yl)ethyl]-amino}-5,8-dihydroxy-anthracene-9,10-dione], the IC50 in the series with A2780 (setting [1]) was found to be 69 nM.

Consider `CN(C)CCNc1ccc(NCCN2C(CCl)CCCC2CCl)c2c1C(=O)c1c(O)ccc(O)c1C2=O` (stereo not drawn) [CAQ187M, 1-{[2-(2,6-Dichloromethylpiperidin-1-yl)ethyl]-amino}-4-{[(2-dimethylamino)ethyl]amino}-5,8-dihydroxyanthracene-9,10-dione], for which the values for the IC50 in the series on A2780/cp70 (setting [2]) and in the series on 2780AD (2780AD adriamycin resistant) were 0.357 µM and 106 nM, respectively. In addition, in the series on A2780/cp70, the “RF A2780/cp70” value is listed as 14.9. Further, the “RF 2780AD” value in the series with 2780AD turned out to be 4.4.

With `CN(C)CCNc1ccc(NCCN2CCCC(O)C2)c2c1C(=O)c1c(O)ccc(O)c1C2=O` (stereo not drawn) [HAQ73, 1-[(2-Dimethylamino)ethylamino]-4-[2-(3-hydroxypiperidon-1-yl)ethylamino]-5,8-dihydroxy-anthracene-9,10-dione], in the series on A2780 (setting [5]), the IC50 turned out to be 10.8 nM.

In the case of `CN(C)CCNc1ccc(NCCN2CCCC(Cl)C2)c2c1C(=O)c1c(O)ccc(O)c1C2=O` (stereo not drawn) [CAQ166M, 1-{[2-(3-Chloropiperidin-1-yl)ethyl]amino}-4-{[(2-dimethylamino)ethyl]amino}-5,8-dihydroxyanthracene-9,10-dione], the IC50 in the series on A2780/cp70 (setting [2]) was 0.063 µM; with 2780AD (2780AD adriamycin resistant), 75 nM. Besides, in the series on A2780/cp70, the “RF A2780/cp70” value is reported as 7. The “RF 2780AD” value in the series on 2780AD turned out to be 8.3.

`O=C1c2c(O)ccc(O)c2C(=O)c2c(NCCN3CCC(O)C3)ccc(NCCN3CCC(O)C3)c21` (stereo not drawn) [HAQ115, 1,4-Bis-{[2-(3-hydroxypyrrolidin-1-yl)ethyl]amino}-5,8-dihydroxy-anthracene-9,10-dione] returned a melting point of 197 to 199 °C.

Regarding `O=C1c2c(O)ccc(O)c2C(=O)c2c(NCCN3CCCCC3CCl)ccc(NCCN3CCCCC3CCl)c21` (stereo not drawn) [CAQ190M, 1,4-Bis-{[2-(2-chloromethylpiperidin-1-yl)ethyl]amino}-5,8-dihydroxyanthracene-9,10-dione], the IC50 is more than 1 µM in the series with A2780/cp70 (setting [3]); more than 1000 nM in the series on 2780AD (Homo sapiens, 2780AD); 178 nM in the series on A2780 (setting [4]).

In turn, `O=C1c2ccccc2C(=O)c2c(NCCN3CCCC3CCl)cccc21` (stereo not drawn) [CAQ191M, 1-{[2-(2-chloromethylpyrrolidin-1-yl)ethyl]amino}-anthracene-9,10-dione] yielded a melting point of 250 to 253 °C. Besides, in the series with A2780/cp70 (setting [3]), the IC50 was more than 1 µM. Moreover, the IC50 with 2780AD (Homo sapiens, 2780AD) is more than 1000 nM. Further, in the series with A2780 (setting [4]), the IC50 was more than 1000 nM.
